Laboratory results published in publication PMC7572458, “Multiple mutations in the EPSPS and ALS genes of Amaranthus hybridus underlie resistance to glyphosate and ALS inhibitors” (Scientific Reports, 2020).

Columns and labels:
[1] = target: T1, ALS (acetolactate synthase) (Amaranthus hybridus, UniProt A0A346FHL9); assay: acetoin colorimetric (creatine/naphthol, […] nm), crude leaf extract; assay type: biochemical; details: read-out: I50 (μM) ± SE
T1 construct: native, crude seedling leaf extract supernatant (15,000 g), not purified

[2] = system: T2, ALS (acetolactate synthase); assay: as above; assay type: biochemical, Amaranthus hybridus; details: MR2 population, zygosity not given; pyruvate, MgCl2, FAD, pH 7.5, 37 °C, 1 h; stated gain; read-out: I50 (μM) ± SE
T2 construct: native, crude seedling leaf extract supernatant (15,000 g), not purified

T1 sequence (A0A346FHL9 81-669 limits assumed): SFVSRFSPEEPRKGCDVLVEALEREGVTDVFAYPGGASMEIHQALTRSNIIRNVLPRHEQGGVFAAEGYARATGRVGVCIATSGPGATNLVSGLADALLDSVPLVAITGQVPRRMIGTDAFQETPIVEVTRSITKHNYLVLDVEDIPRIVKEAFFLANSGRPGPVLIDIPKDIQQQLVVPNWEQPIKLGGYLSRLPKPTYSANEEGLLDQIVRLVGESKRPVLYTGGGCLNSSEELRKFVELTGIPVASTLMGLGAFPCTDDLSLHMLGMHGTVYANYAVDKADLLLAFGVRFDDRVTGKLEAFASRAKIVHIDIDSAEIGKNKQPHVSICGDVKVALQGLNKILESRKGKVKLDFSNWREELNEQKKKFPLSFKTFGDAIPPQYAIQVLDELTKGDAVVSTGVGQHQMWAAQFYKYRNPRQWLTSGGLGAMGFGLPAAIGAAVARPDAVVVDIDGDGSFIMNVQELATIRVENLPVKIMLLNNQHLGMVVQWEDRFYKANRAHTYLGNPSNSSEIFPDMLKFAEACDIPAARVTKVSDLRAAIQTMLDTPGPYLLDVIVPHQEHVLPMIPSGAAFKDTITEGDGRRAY

Row | Structure (SMILES) | IC50 [1] [µM] | IC50 [2] [µM]
1 | COc1cc(OC)nc(Oc2cccc(Oc3nc(OC)cc(OC)n3)c2C(=O)O)n1 [byspiribac] | 45.9 ± 8 | 2730 ± 80
2 | COc1ncc(F)c2nc(S(=O)(=O)Nc3c(F)cccc3F)nn12 [florasulam] | 17.4 ± 1.4 | 56.5 ± 9
3 | COc1nn(C(=O)NS(=O)(=O)c2ccccc2OC(F)(F)F)c(=O)n1C [flucarbazone] | 1 ± 0.1 | 145 ± 11.5
4 | COCc1cnc(C2=NC(C)(C(C)C)C(=O)N2)c(C(=O)O)c1 (stereo not shown) [imazamox] | 117 ± 9.1 | 3170 ± 112
5 | COC(=O)c1ccccc1S(=O)(=O)NC(=O)N(C)c1nc(C)nc(OC)n1 [tribenuron-methyl] | 47.5 ± 6.3 | 273 ± 26
